According to PubChem BioAssay (NCI):
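Cultured in 96-well plates, cells were exposed to test compound for 48 hours across five concentrations. At the TGI there is no net growth.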

Columns and labels:
Assay in all cases: NCI anticancer screen, dose series, 48 h
[1] = system: 786-0 renal
[2] = system: A549 NSCLC
[3] = system: ACHN renal
[4] = system: CCRF-CEM leukemia
[5] = system: COLO 205 colon
[6] = system: DLD-1 colon
[7] = system: DMS 273 small cell lung
[8] = system: EKVX NSCLC
[9] = system: HCC-2998 colon
[10] = system: HCT-116 colon
[11] = system: HCT-15 colon
[12] = system: HL-60(TB) leukemia
[13] = system: HOP-18 NSCLC
[14] = system: HOP-62 NSCLC
[15] = system: HOP-92 NSCLC
[16] = system: HT29 colon
[17] = system: IGROV1 ovarian
[18] = system: K-562 leukemia
[19] = system: KM12 colon
[20] = system: KM20L2 colon
[21] = system: LOX IMVI melanoma
[22] = system: LXFL 529 NSCLC
[23] = system: M14 melanoma
[24] = system: M19-MEL melanoma
[25] = system: MOLT-4 leukemia
[26] = system: NCI-H23 lung
[27] = system: NCI-H460 lung
[28] = system: NCI-H522 lung
[29] = system: OVCAR-3 ovarian
[30] = system: OVCAR-4 ovarian
[31] = system: OVCAR-5 ovarian
[32] = system: OVCAR-8 ovarian
[33] = system: RPMI-8226 leukemia
[34] = system: RXF 393 renal
[35] = system: SF-268 CNS
[36] = system: SF-295 CNS
[37] = system: SK-MEL-28 melanoma
[38] = system: SK-MEL-5 melanoma
[39] = system: SK-OV-3 ovarian
[40] = system: SN12C renal
[41] = system: SNB-19 CNS
[42] = system: SR leukemia
[43] = system: SW-620 colon
[44] = system: TK-10 renal
[45] = system: U251 CNS
[46] = system: UACC-257 melanoma
[47] = system: UACC-62 melanoma
[48] = system: UO-31 renal
[49] = system: XF 498 CNS
[50] = system: A498 renal
[51] = system: CAKI-1 renal
[52] = system: DMS 114 small cell lung
[53] = system: MALME-3M melanoma
[54] = system: SK-MEL-2 melanoma
[55] = system: SNB-75 CNS

`COC(=O)N/N=C/c1oc(-c2cccc([N+](=O)[O-])c2)c(-c2cccc([N+](=O)[O-])c2)c1[N+](=O)[O-]` showed a TGI [1] greater than 100 µM, a TGI [2] greater than 100 µM and a TGI [3] greater than 100 µM. The TGI [4] was 78.3 µM, the TGI [5] was greater than 100 µM and the TGI [6] was greater than 100 µM. For the same compound, the TGI [7] was greater than 100 µM, the TGI [8] was greater than 100 µM and the TGI [9] was greater than 100 µM. The TGI [10] was greater than 100 µM, the TGI [11] was greater than 100 µM and the TGI [12] was 55.4 µM. It also gave a TGI [13] greater than 100 µM, a TGI [14] greater than 100 µM and a TGI [15] greater than 100 µM. The TGI [16] was greater than 100 µM, the TGI [17] was greater than 100 µM and the TGI [18] was greater than 100 µM. It also gave a TGI [19] greater than 100 µM, a TGI [20] greater than 100 µM and a TGI [21] greater than 100 µM. The TGI [22] was greater than 100 µM, the TGI [23] was greater than 100 µM and the TGI [24] was greater than 100 µM. For the same compound, the TGI [25] was 89.9 µM, the TGI [26] was greater than 100 µM and the TGI [27] was greater than 100 µM. For the same compound, the TGI [28] was greater than 100 µM, the TGI [29] was greater than 100 µM and the TGI [30] was greater than 100 µM. It also gave a TGI [31] greater than 100 µM, a TGI [32] greater than 100 µM and a TGI [33] greater than 100 µM. For the same compound, the TGI [34] was greater than 100 µM, the TGI [35] was greater than 100 µM and the TGI [36] was greater than 100 µM. It also gave a TGI [37] greater than 100 µM, a TGI [38] greater than 100 µM and a TGI [39] greater than 100 µM. The TGI [40] was greater than 100 µM, the TGI [41] was greater than 100 µM and the TGI [42] was greater than 100 µM. It also gave a TGI [43] greater than 100 µM, a TGI [44] greater than 100 µM and a TGI [45] greater than 100 µM. The TGI [46] was greater than 100 µM, the TGI [47] was greater than 100 µM and the TGI [48] was greater than 100 µM. It also gave a TGI [49] greater than 100 µM.
Work on `COC(=O)CC1C(=O)OCc2c1cc1n(c2=O)Cc2c-1nc1ccccc1c2OC` (stereo not given) yielded a TGI [1] greater than 100 µM, a TGI [50] greater than 100 µM and a TGI [2] greater than 100 µM. For the same compound, the TGI [3] was greater than 100 µM, the TGI [51] was 34.4 µM and the TGI [4] was greater than 100 µM. For the same compound, the TGI [5] was greater than 100 µM, the TGI [52] was greater than 100 µM and the TGI [7] was greater than 100 µM. The TGI [8] was greater than 100 µM, the TGI [9] was greater than 100 µM and the TGI [10] was greater than 100 µM. It also gave a TGI [11] greater than 100 µM, a TGI [12] greater than 100 µM and a TGI [13] greater than 100 µM. For the same compound, the TGI [14] was greater than 100 µM, the TGI [15] was greater than 100 µM and the TGI [16] was greater than 100 µM. It also gave a TGI [17] greater than 100 µM, a TGI [18] greater than 100 µM and a TGI [20] greater than 100 µM. The TGI [21] was greater than 100 µM, the TGI [22] was greater than 100 µM and the TGI [23] was greater than 100 µM. For the same compound, the TGI [24] was greater than 100 µM, the TGI [53] was greater than 100 µM and the TGI [25] was 32.3 µM. It also gave a TGI [26] of 97.9 µM, a TGI [27] greater than 100 µM and a TGI [28] greater than 100 µM. For the same compound, the TGI [30] was greater than 100 µM, the TGI [31] was greater than 100 µM and the TGI [32] was greater than 100 µM. It also gave a TGI [33] greater than 100 µM, a TGI [34] of 70.2 µM and a TGI [35] greater than 100 µM. It also gave a TGI [54] greater than 100 µM, a TGI [37] greater than 100 µM and a TGI [38] greater than 100 µM. The TGI [39] was greater than 100 µM, the TGI [40] was greater than 100 µM and the TGI [41] was greater than 100 µM. For the same compound, the TGI [55] was greater than 100 µM, the TGI [42] was 40.8 µM and the TGI [43] was greater than 100 µM. It also gave a TGI [44] greater than 100 µM, a TGI [45] greater than 100 µM and a TGI [46] greater than 100 µM. For the same compound, the TGI [47] was greater than 100 µM, the TGI [48] was greater than 100 µM and the TGI [49] was greater than 100 µM.
